Drawing on ChEMBL document CHEMBL1128991, “Trishomocubanes, a new class of selective and high affinity ligands for the sigma binding site” (Bioorg Med Chem Lett, 1996), this text covers Ki for 6 compounds.

This assay in a line: Binding affinity towards NMDA receptor ion channel (PCP site) was determined.

For the compound `Ic1ccc(CNC2C3C4CC5C6C4C2C6C2(OCCO2)C53)cc1` (stereo unspecified), the Ki (commonly the equilibrium dissociation constant of an inhibitor or competing ligand from its target) is greater than 10 µM. Next, `OC12C3C4CC5C6C4C1C6C(C53)N2Cc1ccccc1` (stereo unspecified): greater than 10 µM; `Brc1cccc(CNC2C3C4CC5C6C4C2C6C2(OCCO2)C53)c1` (stereo unspecified): greater than 10 µM. Then `OC12C3C4CC5C6C4C1C6C(C53)N2Cc1cccc(Br)c1` (stereo unspecified), with greater than 10 µM. Next, `c1ccc(CNC2C3C4CC5C6C4C2C6C2(OCCO2)C53)cc1` (stereo unspecified): greater than 10 µM; `Ic1cccc(CNC2C3C4CC5C6C4C2C6C2(OCCO2)C53)c1` (stereo unspecified): greater than 10 µM.
